Measured values from the supplement of paper PMC13380429.

Columns and labels:
Conditions in all cases: 72 h
Caco-2 [1] = assay: cell viability relative to DMSO; higher = less toxic
Calu-3 [2] = assay: as above
HepG2 [3] = assay: as above
U2OS [4] = assay: as above
Vero E6 [5] = assay: as above
Caco-2 [6] = assay: relative viability EC50 (midpoint between 100% and the lowest measured viability); higher = less toxic
Calu-3 [7] = assay: as above
HepG2 [8] = assay: as above
U2OS [9] = assay: as above
Vero E6 [10] = assay: as above
Caco-2 [11] = assay: drug sensitivity score (DSS) for viability; higher = more toxic; extreme values may be limits of the assay
Calu-3 [12] = assay: as above
HepG2 [13] = assay: as above
U2OS [14] = assay: as above
Vero E6 [15] = assay: as above

In the case of CCN(CC)CCOc1ccc(Nc2ncc3cc(-c4c(Cl)cccc4Cl)c(=O)n(C)c3n2)cc1, the cell viability (Caco-2 [1]; 1 nM) is reported as 102%, the cell viability (Caco-2 [1]; 10 nM) is reported as 102% and the cell viability (Caco-2 [1]; 100 nM) is reported as 80.7%. The cell viability (Caco-2 [1]; 1000 nM) was 41.7%, the cell viability (Caco-2 [1]; 10000 nM) was 5.4% and the cell viability (Calu-3 [2]; 1 nM) was 98.8%. For the same molecule, the cell viability (Calu-3 [2]; 10 nM) was 99.5%, the cell viability (Calu-3 [2]; 100 nM) was 80.3% and the cell viability (Calu-3 [2]; 1000 nM) was 49%. For the same molecule, the cell viability (Calu-3 [2]; 10000 nM) was 2.3%, the cell viability (HepG2 [3]; 1 nM) was 111% and the cell viability (HepG2 [3]; 10 nM) was 97.9%. The cell viability (HepG2 [3]; 100 nM) was 82.2%, the cell viability (HepG2 [3]; 1000 nM) was 11.3% and the cell viability (HepG2 [3]; 10000 nM) was 0.1%. For the same molecule, the cell viability (U2OS [4]; 1 nM) was 99.1%, the cell viability (U2OS [4]; 10 nM) was 104% and the cell viability (U2OS [4]; 100 nM) was 90.8%. For the same molecule, the cell viability (U2OS [4]; 1000 nM) was 10.4%, the cell viability (U2OS [4]; 10000 nM) was -0.1% and the cell viability (Vero E6 [5]; 1 nM) was 95%. It also gave a cell viability (Vero E6 [5]; 10 nM) of 95.3%, a cell viability (Vero E6 [5]; 100 nM) of 88.9% and a cell viability (Vero E6 [5]; 1000 nM) of 26.6%. For the same molecule, the cell viability (Vero E6 [5]; 10000 nM) was -0.1%, the “relative viability EC50” value (Caco-2 [6]) was 0.532 µM and the “relative viability EC50” value (Calu-3 [7]) was 0.712 µM. For the same molecule, the “relative viability EC50” value (HepG2 [8]) was 0.266 µM, the “relative viability EC50” value (U2OS [9]) was 0.329 µM and the “relative viability EC50” value (Vero E6 [10]) was 0.465 µM. For the same molecule, the drug sensitivity score (Caco-2 [11]) was 13.5, the drug sensitivity score (Calu-3 [12]) was 12.5 and the drug sensitivity score (HepG2 [13]) was 18.4. For the same molecule, the drug sensitivity score (U2OS [14]) was 17.5 and the drug sensitivity score (Vero E6 [15]) was 15.3.

CN(C)Cc1cccc(N/C(=C2\C(=O)Nc3cc(C(N)=O)ccc32)c2ccccc2)c1 showed a cell viability (Caco-2 [1]; 1 nM) of 102%, a cell viability (Caco-2 [1]; 10 nM) of 99.7% and a cell viability (Caco-2 [1]; 100 nM) of 100%. It also gave a cell viability (Caco-2 [1]; 1000 nM) of 88.3%, a cell viability (Caco-2 [1]; 10000 nM) of 107% and a cell viability (Calu-3 [2]; 1 nM) of 103%. The cell viability (Calu-3 [2]; 10 nM) was 92.7%, the cell viability (Calu-3 [2]; 100 nM) was 96.3% and the cell viability (Calu-3 [2]; 1000 nM) was 95.6%. It also gave a cell viability (Calu-3 [2]; 10000 nM) of 96%, a cell viability (HepG2 [3]; 1 nM) of 106% and a cell viability (HepG2 [3]; 10 nM) of 105%. The cell viability (HepG2 [3]; 100 nM) was 89.4%, the cell viability (HepG2 [3]; 1000 nM) was 112% and the cell viability (HepG2 [3]; 10000 nM) was 112%. It also gave a cell viability (U2OS [4]; 1 nM) of 96.6%, a cell viability (U2OS [4]; 10 nM) of 94.8% and a cell viability (U2OS [4]; 100 nM) of 99%. It also gave a cell viability (U2OS [4]; 1000 nM) of 93.5%, a cell viability (U2OS [4]; 10000 nM) of 101% and a cell viability (Vero E6 [5]; 1 nM) of 98.3%. It also gave a cell viability (Vero E6 [5]; 10 nM) of 102%, a cell viability (Vero E6 [5]; 100 nM) of 95.6% and a cell viability (Vero E6 [5]; 1000 nM) of 96.2%. The cell viability (Vero E6 [5]; 10000 nM) was 102%, the “relative viability EC50” value (Caco-2 [6]) was > 10 µM and the “relative viability EC50” value (Calu-3 [7]) was > 10 µM. The “relative viability EC50” value (HepG2 [8]) was > 10 µM, the “relative viability EC50” value (U2OS [9]) was > 10 µM and the “relative viability EC50” value (Vero E6 [10]) was > 10 µM. It also gave a drug sensitivity score (Caco-2 [11]) of 0, a drug sensitivity score (Calu-3 [12]) of 0 and a drug sensitivity score (HepG2 [13]) of 0. It also gave a drug sensitivity score (U2OS [14]) of 0 and a drug sensitivity score (Vero E6 [15]) of 0.

For COC1(C[S@@+]([O-])c2ccccc2)CCN(CCc2c[nH]c3ccc(F)cc23)CC1, the cell viability (Caco-2 [1]; 1 nM) was 93.6%, the cell viability (Caco-2 [1]; 10 nM) was 99.1% and the cell viability (Caco-2 [1]; 100 nM) was 87.1%. For the same molecule, the cell viability (Caco-2 [1]; 1000 nM) was 102%, the cell viability (Caco-2 [1]; 10000 nM) was 90.3% and the cell viability (Calu-3 [2]; 1 nM) was 100%. For the same molecule, the cell viability (Calu-3 [2]; 10 nM) was 94.6%, the cell viability (Calu-3 [2]; 100 nM) was 99% and the cell viability (Calu-3 [2]; 1000 nM) was 101%. For the same molecule, the cell viability (Calu-3 [2]; 10000 nM) was 100%, the cell viability (HepG2 [3]; 1 nM) was 95.9% and the cell viability (HepG2 [3]; 10 nM) was 88.4%. For the same molecule, the cell viability (HepG2 [3]; 100 nM) was 86.6%, the cell viability (HepG2 [3]; 1000 nM) was 96.6% and the cell viability (HepG2 [3]; 10000 nM) was 84.1%. It also gave a cell viability (U2OS [4]; 1 nM) of 96.2%, a cell viability (U2OS [4]; 10 nM) of 95.9% and a cell viability (U2OS [4]; 100 nM) of 100%. The cell viability (U2OS [4]; 1000 nM) was 96.5%, the cell viability (U2OS [4]; 10000 nM) was 99.9% and the cell viability (Vero E6 [5]; 1 nM) was 103%. It also gave a cell viability (Vero E6 [5]; 10 nM) of 101%, a cell viability (Vero E6 [5]; 100 nM) of 92.5% and a cell viability (Vero E6 [5]; 1000 nM) of 102%. For the same molecule, the cell viability (Vero E6 [5]; 10000 nM) was 93.8%, the “relative viability EC50” value (Caco-2 [6]) was > 10 µM and the “relative viability EC50” value (Calu-3 [7]) was > 10 µM. The “relative viability EC50” value (HepG2 [8]) was > 10 µM, the “relative viability EC50” value (U2OS [9]) was > 10 µM and the “relative viability EC50” value (Vero E6 [10]) was > 10 µM. The drug sensitivity score (Caco-2 [11]) was 0, the drug sensitivity score (Calu-3 [12]) was 0 and the drug sensitivity score (HepG2 [13]) was 0. For the same molecule, the drug sensitivity score (U2OS [14]) was 0 and the drug sensitivity score (Vero E6 [15]) was 0.
